Source: the supplement of paper PMC12463676, “Small-molecule dissolution of stress granules by redox modulation benefits ALS models” (Nature Chemical Biology, 2025)

Experiments:
potassium arsenate = compound: O=[As]([O-])(O)O.[K+] [potassium arsenate]; assay: thermal stability z-score vs DMSO; higher = more thermally stabilized by treatment; conditions: HeLa; arsenate concentration 1 mM
Description: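 Cellular thermal proteome profiling in HeLa cells treated with 1 mM arsenate for 1 h (DMSO pretreatment), heated to ten temperatures (37-66.3 °C). Soluble protein was quantified by TMT mass spectrometry relative to DMSO controls; the thermal stability score was transformed to a z-score; mean of n = 3 experiments.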

lipoamide = compound: NC(=O)CCCCC1CCSS1 [lipoamide]; assay: as above; conditions: HeLa, lipoamide concentration 100 µM
Description: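 Cellular thermal proteome profiling in HeLa cells. Cells were treated with 100 µM lipoamide for 1 h, with or without 1 mM arsenate for a further 1 h, then heated to ten temperatures (37-66.3 °C), and soluble protein was quantified by TMT mass spectrometry relative to 0.1% DMSO controls. The thermal stability score (sum of log2 fold changes minus the abundance score) was transformed to a z-score; mean of n = 3 experiments.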

[1] = arsenate co-treatment: 1 mM arsenate 1 h
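Further: each temperature applied for 3 min, abundance score taken as mean log2 fold change at the two lowest temperatures, z-score obtained by mean subtraction and division by SD.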

Sequence of UniProt O75113 (O75113 whole entry): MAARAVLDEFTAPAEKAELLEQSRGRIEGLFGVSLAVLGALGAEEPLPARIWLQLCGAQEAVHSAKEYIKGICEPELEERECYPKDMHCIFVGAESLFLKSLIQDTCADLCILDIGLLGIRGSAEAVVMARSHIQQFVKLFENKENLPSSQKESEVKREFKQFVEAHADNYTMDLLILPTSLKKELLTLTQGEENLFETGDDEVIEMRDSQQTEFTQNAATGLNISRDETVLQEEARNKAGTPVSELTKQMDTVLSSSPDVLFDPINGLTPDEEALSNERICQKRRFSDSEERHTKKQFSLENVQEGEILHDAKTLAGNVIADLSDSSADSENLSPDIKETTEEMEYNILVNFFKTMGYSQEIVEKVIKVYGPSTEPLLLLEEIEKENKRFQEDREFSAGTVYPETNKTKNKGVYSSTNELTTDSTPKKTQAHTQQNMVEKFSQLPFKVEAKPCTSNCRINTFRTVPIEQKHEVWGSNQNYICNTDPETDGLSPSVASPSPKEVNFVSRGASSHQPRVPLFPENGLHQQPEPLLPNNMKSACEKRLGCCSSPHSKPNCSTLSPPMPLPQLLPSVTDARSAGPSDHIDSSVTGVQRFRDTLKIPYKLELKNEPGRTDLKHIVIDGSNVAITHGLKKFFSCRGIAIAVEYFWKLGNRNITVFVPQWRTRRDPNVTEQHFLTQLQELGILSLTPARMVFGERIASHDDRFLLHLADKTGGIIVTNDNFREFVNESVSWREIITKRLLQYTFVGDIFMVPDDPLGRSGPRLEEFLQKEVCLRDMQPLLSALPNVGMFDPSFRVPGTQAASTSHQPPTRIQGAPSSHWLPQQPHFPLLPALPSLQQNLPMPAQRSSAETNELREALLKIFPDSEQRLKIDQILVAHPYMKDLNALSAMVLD
Sequence of UniProt Q14764 (Q14764 whole entry): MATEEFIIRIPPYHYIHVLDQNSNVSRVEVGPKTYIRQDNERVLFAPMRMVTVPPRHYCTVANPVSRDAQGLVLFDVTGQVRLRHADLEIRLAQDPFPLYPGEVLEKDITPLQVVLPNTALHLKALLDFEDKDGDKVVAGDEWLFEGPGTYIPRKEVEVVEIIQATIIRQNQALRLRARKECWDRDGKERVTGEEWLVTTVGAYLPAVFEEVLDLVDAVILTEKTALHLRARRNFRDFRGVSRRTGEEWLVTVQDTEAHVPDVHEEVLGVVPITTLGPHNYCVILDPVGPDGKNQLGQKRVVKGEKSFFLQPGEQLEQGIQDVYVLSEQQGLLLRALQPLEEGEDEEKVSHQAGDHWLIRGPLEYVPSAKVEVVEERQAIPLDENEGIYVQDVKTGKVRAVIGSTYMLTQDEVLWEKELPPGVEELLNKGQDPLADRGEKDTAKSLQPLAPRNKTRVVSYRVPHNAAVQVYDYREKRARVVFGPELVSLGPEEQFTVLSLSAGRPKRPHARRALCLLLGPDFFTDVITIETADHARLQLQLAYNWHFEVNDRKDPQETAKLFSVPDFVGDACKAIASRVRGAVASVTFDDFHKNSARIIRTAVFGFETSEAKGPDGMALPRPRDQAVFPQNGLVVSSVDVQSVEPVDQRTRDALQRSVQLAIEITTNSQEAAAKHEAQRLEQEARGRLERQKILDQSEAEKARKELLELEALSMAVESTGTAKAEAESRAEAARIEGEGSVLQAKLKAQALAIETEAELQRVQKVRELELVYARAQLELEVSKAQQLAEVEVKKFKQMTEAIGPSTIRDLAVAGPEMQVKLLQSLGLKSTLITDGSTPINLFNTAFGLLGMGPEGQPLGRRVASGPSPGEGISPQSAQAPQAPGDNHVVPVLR
Sequence of UniProt P84157 (P84157 whole entry): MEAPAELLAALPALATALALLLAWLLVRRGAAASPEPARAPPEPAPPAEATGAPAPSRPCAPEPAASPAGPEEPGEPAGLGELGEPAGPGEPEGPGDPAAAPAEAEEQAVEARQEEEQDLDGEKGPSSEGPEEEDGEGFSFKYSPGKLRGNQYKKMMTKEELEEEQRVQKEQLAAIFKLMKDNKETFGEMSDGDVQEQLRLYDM
Sequence of UniProt Q13615 (Q13615 whole entry): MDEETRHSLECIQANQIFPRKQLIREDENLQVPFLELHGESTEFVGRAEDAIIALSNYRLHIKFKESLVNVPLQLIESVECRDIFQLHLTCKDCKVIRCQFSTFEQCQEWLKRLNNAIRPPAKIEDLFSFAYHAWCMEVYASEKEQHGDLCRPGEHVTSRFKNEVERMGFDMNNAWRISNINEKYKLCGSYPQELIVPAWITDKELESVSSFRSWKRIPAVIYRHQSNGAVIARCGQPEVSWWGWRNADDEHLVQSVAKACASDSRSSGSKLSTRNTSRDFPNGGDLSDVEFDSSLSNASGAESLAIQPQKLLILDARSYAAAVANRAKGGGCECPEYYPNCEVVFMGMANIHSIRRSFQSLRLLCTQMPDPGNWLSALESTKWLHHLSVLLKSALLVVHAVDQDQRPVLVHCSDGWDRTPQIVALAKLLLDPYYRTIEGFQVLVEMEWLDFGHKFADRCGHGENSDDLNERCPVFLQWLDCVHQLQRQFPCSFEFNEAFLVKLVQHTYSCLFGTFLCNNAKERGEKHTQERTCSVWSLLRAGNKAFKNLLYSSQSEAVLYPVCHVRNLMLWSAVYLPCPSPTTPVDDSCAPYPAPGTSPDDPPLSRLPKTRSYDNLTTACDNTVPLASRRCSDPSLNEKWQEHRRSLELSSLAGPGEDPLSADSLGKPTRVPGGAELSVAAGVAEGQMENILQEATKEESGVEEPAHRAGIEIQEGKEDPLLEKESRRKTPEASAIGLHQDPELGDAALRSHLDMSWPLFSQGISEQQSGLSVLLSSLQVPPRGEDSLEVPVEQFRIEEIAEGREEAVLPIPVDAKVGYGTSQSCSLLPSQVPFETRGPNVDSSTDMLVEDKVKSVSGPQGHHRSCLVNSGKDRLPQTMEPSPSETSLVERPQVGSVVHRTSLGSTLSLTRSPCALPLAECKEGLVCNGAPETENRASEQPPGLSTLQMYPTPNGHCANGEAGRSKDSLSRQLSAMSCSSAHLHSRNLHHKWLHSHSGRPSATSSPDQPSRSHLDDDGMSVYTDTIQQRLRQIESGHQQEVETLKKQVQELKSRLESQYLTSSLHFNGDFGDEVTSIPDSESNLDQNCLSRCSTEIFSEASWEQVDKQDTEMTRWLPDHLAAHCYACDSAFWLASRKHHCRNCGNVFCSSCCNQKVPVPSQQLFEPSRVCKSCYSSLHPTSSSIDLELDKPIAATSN
Sequence of UniProt Q969H8 (Q969H8 whole entry): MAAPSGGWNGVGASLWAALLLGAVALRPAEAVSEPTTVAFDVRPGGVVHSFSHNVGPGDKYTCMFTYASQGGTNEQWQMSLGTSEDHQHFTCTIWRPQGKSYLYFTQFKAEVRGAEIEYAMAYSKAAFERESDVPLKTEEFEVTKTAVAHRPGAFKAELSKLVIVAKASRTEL
Sequence of UniProt Q9NVV4 (Q9NVV4 whole entry): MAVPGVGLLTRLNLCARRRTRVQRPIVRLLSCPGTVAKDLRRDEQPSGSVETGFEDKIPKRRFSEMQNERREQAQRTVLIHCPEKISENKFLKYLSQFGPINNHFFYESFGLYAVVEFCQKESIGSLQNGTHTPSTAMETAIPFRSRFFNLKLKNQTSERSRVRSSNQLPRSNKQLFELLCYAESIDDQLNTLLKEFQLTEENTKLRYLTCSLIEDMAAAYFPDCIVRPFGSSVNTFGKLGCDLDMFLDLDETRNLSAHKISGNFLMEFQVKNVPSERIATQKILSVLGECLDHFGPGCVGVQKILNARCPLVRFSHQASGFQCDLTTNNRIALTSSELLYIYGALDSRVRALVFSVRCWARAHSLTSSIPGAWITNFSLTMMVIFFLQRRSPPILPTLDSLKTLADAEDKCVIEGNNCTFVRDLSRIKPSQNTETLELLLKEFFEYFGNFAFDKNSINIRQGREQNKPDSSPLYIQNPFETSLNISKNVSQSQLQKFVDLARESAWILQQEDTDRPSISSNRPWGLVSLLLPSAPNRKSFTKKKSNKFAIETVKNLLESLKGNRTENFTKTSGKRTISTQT
Sequence of UniProt Q13496 (Q13496 whole entry): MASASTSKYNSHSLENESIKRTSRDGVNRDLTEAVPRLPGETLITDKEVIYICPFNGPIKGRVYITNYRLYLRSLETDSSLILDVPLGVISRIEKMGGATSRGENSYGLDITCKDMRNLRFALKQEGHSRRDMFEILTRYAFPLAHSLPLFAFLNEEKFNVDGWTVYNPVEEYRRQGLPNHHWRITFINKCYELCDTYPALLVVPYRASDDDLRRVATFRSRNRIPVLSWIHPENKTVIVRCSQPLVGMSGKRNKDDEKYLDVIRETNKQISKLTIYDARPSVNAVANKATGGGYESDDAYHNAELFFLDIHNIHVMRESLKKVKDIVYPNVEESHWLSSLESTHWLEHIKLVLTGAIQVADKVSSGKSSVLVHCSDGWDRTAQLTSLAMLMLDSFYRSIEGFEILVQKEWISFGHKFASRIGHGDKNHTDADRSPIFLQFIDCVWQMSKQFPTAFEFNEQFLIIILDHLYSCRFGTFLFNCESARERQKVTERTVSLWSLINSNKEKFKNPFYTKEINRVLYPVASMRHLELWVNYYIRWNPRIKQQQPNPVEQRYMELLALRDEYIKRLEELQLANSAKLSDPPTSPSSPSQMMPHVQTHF
Sequence of UniProt Q9UGC7 (Q9UGC7 whole entry): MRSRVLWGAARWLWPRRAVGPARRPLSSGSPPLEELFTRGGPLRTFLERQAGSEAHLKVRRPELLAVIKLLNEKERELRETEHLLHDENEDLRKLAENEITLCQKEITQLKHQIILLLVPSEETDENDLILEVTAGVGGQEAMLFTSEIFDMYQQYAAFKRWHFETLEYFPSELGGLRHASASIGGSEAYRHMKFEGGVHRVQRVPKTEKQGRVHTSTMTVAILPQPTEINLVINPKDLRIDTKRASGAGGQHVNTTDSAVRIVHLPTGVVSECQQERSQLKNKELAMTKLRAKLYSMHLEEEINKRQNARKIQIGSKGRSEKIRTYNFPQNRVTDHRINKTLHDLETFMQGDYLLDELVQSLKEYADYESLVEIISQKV

Target	thermal stability z-score (potassium arsenate)	thermal stability z-score (lipoamide; [1])	thermal stability z-score (lipoamide; arsenate co-treatment: none)
MTM1 (UniProt Q13496)	-0.804	0.198	0.0354
MTMR1 (UniProt Q13613)	-1.27	-0.545	-0.803
MTMR2 (UniProt Q13614)	-0.555	0.88	-0.108
MTMR3 (UniProt Q13615)	-1.04	-0.301	-0.594
MTMR6 (UniProt Q9Y217)	-0.39	0.0538	0.0997
MTMR9 (UniProt Q96QG7)	-0.12	-0.0303	1.35
MTMR10 (UniProt Q9NXD2)	-0.188	-0.108	0.0107
MTMR12 (UniProt Q9C0I1)	-0.0618	0.611	-0.0556
MTMR14 (UniProt Q8NCE2)	-0.829	-1.39	-0.656
MTO1 (UniProt Q9Y2Z2)	1.97	0.544	0.263
MTOR (UniProt P42345)	0.0121	0.00431	0.137
MTPAP (UniProt Q9NVV4)	-0.28	0.621	0.936
MTPN (UniProt P58546)	-0.432	0.382	0.145
MTR (UniProt Q99707)	0.289	-0.354	-0.00141
MTRF1L (UniProt Q9UGC7)	0.646	-1.57	-0.343
MTRR (UniProt Q9UBK8)	0.111	0.00117	-0.531
MTSS1L (UniProt Q765P7)	-0.228	0.179	0.0525
MTUS1 (UniProt Q9ULD2)	0.0626	-0.0967	0.692
MTX1 (UniProt Q13505)	0.421	-0.275	0.061
MTX2 (UniProt O75431)	0.0221	-0.388	-0.267
MTX3 (UniProt Q5HYI7)	-0.0757	0.929	0.179
MUL1 (UniProt Q969V5)	-2.82	-0.0704	-0.261
MUT (UniProt P22033)	-1.02	-0.252	-0.48
MVB12A (UniProt Q96EY5)	0.35	0.652	-0.0184
MVD (UniProt P53602)	-0.0067	0.0441	-0.0153
MVK (UniProt Q03426)	-0.675	-0.352	-0.323
MVP (UniProt Q14764)	1.08	0.484	0.37
MXRA7 (UniProt P84157)	-0.34	0.254	0.307

Target	thermal stability z-score (potassium arsenate)	thermal stability z-score (lipoamide; [1])	thermal stability z-score (lipoamide; arsenate co-treatment: none)
MYADM (UniProt Q96S97)	1.34	0.0599	0.353
MYBBP1A (UniProt Q9BQG0)	-1.35	1.21	0.675
MYCBP2 (UniProt O75592)	-0.207	-0.0354	0.179
MYDGF (UniProt Q969H8)	-0.0349	-1.32	-1.06
MYH9 (UniProt P35579)	0.2	0.442	0.363
MYH10 (UniProt P35580)	0.375	0.273	0.19
MYH14 (UniProt Q7Z406)	0.458	0.363	0.126
MYL6 (UniProt P60660)	-0.312	0.576	0.451
MYL6B (UniProt P14649)	-1.03	-0.283	0.233
MYL12A|MYL12B	-0.0176	0.352	0.436
MYO1B (UniProt O43795)	-2.1	0.967	0.54
MYO1C (UniProt O00159)	-1.94	1.12	0.329
MYO1E (UniProt Q12965)	-0.8	0.918	0.582
MYO5A (UniProt Q9Y4I1)	0.118	0.351	0.43
MYO5C (UniProt Q9NQX4)	0.0128	0.173	0.236
MYO6 (UniProt Q9UM54)	-0.115	0.203	0.26
MYO9B (UniProt Q13459)	-0.364	-0.266	-0.1
MYO10 (UniProt Q9HD67)	0.432	0.223	0.44
MYO18A	0.197	-0.283	0.122
MYO19 (UniProt Q96H55)	-0.139	0.0427	0.347
MYOF (UniProt Q9NZM1)	0.0213	-0.259	0.0805
MYPN (UniProt Q86TC9)	0.803	0.126	0.447
MZT2B (UniProt Q6NZ67)	0.0663	0.0548	0.181
N4BP1 (UniProt O75113)	-0.0968	0.103	0.0755
NAA10 (UniProt P41227)	0.405	1.16	0.982
NAA15 (UniProt Q9BXJ9)	0.812	0.838	0.593
NAA16 (UniProt Q6N069)	-0.173	0.378	0.394
